Calls of active or inactive are those of the source. How the calls were made is not given here.
Target: N-formyl peptide receptor 2 (Homo sapiens) (UniProt P25090)
Assay: FPRL1 binding inhibitor potency, dose response, cell-based, FPR counter-screen, fluorescent ligand (AID 520)
Settings: FPRL1-expressing cells, fluorescent ligand binding inhibition; for Ki: measured here: FPRL1 binding Ki

Sequence of N-formyl peptide receptor 2 (Homo sapiens) (P25090 whole entry, looked up): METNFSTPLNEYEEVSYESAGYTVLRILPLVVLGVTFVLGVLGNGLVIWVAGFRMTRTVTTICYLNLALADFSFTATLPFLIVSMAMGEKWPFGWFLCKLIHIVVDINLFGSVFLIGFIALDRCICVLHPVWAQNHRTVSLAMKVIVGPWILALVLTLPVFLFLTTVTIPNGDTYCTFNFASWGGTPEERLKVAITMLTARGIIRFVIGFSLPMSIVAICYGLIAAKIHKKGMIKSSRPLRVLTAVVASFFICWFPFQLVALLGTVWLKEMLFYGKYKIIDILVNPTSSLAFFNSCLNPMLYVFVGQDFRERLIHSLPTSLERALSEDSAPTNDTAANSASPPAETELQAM

SMILES	Ki	IC50
CCOC(=O)CSc1nnc(CNC(=O)c2cc(OCC)c(OCC)c(OCC)c2)n1C	6.7 µM	–
Cc1[nH]n2c(=O)c3c(nc2c1-c1ccccc1)CCC3	> 40.3 µM	–
COc1ccc(CC(=O)Nc2ccc(-c3nnc(-c4ccc(C)cc4)o3)cc2)cc1	> 40.3 µM	–
C=CCn1c(NC(=O)c2ccccc2)c(C#N)c2nc3ccccc3nc21	> 40.3 µM	–
COC(=O)c1ccc(C2/C(=C(/O)c3ccc(OC)cc3)C(=O)C(=O)N2Cc2ccco2)cc1 (configuration not stated)	> 40.3 µM	> 66.7 µM (inactive)
CC1Oc2ccccc2N(Cc2ccccc2Cl)C1=O (configuration not stated)	> 40.3 µM	–
COc1ccc2ccccc2c1C1CC(=O)N2CN(C3CCCCC3)CSC2=C1C#N (configuration not stated)	> 40.3 µM	–
COc1cccc(OC)c1/C(O)=C(\C#N)c1nc2ccccc2[nH]1	> 40.3 µM	> 66.7 µM (inactive)
COc1ccc(OC)c(C(=O)c2nc3c(n2O)CCCCC3)c1	> 40.3 µM	–
COc1cccc(C2/C(=C(\O)c3ccc(OC)c(OC)c3)C(=O)C(=O)N2c2cc(C)on2)c1 (configuration not stated)	> 40.3 µM	> 66.7 µM (inactive)
CCOC(=O)C1CCN(Cc2ccc(C(=O)OC)cc2)CC1	> 40.3 µM	–
O=C(NC1CCCCC1)c1sc(=S)n2c1[nH]c(=O)c1ccccc12	> 40.3 µM	–
Cc1oc2cc(O)cc(O)c2c(=O)c1-c1ccc2c(c1)OCCCO2	> 40.3 µM	–
Cc1nn(-c2nc3ccccc3s2)c(C)c1Oc1ccccc1O	> 40.3 µM	–
COCCN1C(=O)C(O)=C(C(=O)c2cccs2)C1c1ccccc1 (configuration not stated)	> 40.3 µM	> 66.7 µM (inactive)
Cc1ccc(C)c(-n2c(CNC(=O)c3ccco3)nnc2SCC(=O)N2CCc3ccccc32)c1	> 40.3 µM	–
CN1C(=O)/C(=C2\SC(=S)N(C(CCC(=O)O)C(=O)O)C2=O)c2ccccc21 (configuration not stated)	> 40.3 µM	–
Nc1ccc(Nc2ccccc2)cc1	> 40.3 µM	–
COc1ccccc1-c1c(C)oc2cc(OC(=O)c3ccco3)ccc2c1=O	> 40.3 µM	–
Cc1c(C(=O)NC2CCCc3ccccc32)oc2ccc(S(=O)(=O)N3CCOCC3)cc12 (configuration not stated)	> 40.3 µM	–
O=C1CCCC(O)=C1C(C#Cc1ccccc1)C1=C(O)CCCC1=O	> 40.3 µM	> 66.7 µM (inactive)
O=C(C1=C(O)C(=O)N(c2ncccn2)C1c1cccc(Cl)c1)c1ccco1 (configuration not stated)	> 40.3 µM	> 66.7 µM (inactive)
CCOC(=O)Cc1cc(=O)n2[nH]c(C)c(-c3ccc(Cl)cc3)c2n1	> 40.3 µM	–
CCCOc1ccc2c(=O)c(N3C(=O)c4ccccc4C3=O)c(C)oc2c1	> 40.3 µM	–

SMILES	Ki	IC50
CCN(CCCc1ccccc1)CCCc1ccccc1	> 40.3 µM	–
COCc1cc(C2C(C(=O)c3ccco3)=C(O)C(=O)N2CCOCCO)ccc1O (configuration not stated)	> 40.3 µM	> 66.7 µM (inactive)
CCOc1ccc(C2C(C(=O)c3cccs3)=C(O)C(=O)N2CCCn2ccnc2)cc1 (configuration not stated)	> 40.3 µM	> 66.7 µM (inactive)
CCOC(=O)c1c(C)[nH]c(C=Nc2ccccc2)c1O	> 40.3 µM	–
O=C(Cn1c(=O)oc2ccccc21)N1CCN(c2ccccc2)CC1	> 40.3 µM	–
CC(C)OC(=O)c1cc(NC(=O)C2C3CCC(O3)C2C(=O)O)cc(C(=O)OC(C)C)c1 (configuration not stated)	> 40.3 µM	–
O=C(Nc1nnc(-c2ccccc2Cl)o1)c1ccc(S(=O)(=O)N2CCCCCC2)cc1	> 40.3 µM	–
CCCC(=O)Nc1c2c(nn1-c1ccc(OC)cc1)CS(=O)C2 (configuration not stated)	> 40.3 µM	–
Cc1ccc(NC(=O)c2oc3ccc(S(=O)(=O)N4CCOCC4)cc3c2C)cc1C	> 40.3 µM	–
COc1ccc2nc(Nc3nc(C)c(C(C)=O)s3)sc2c1	> 40.3 µM	–
CCOC(=O)c1c(NC(=O)C2C3CCC(O3)C2C(=O)O)sc(C)c1-c1ccc(C)cc1 (configuration not stated)	> 40.3 µM	–
COCCN1C(=O)C(O)=C(C(=O)c2ccco2)C1c1cccc(Oc2ccccc2)c1 (configuration not stated)	> 40.3 µM	> 66.7 µM (inactive)
Cc1c(CNCc2cccs2)c(C(=O)O)c(C)n1Cc1ccccc1	> 40.3 µM	–
COc1ccc2c(=O)c(N3C(=O)c4ccccc4C3=O)c(C)oc2c1	> 40.3 µM	–
COc1ccccc1-n1c(CNC(=O)c2ccco2)nnc1SCC(=O)Nc1ccc(F)cc1	> 40.3 µM	–
COc1ccc(-c2nnc(Nc3nc4c(OC)cccc4s3)o2)cc1	> 40.3 µM	–
COCCCN1C(=O)C(=O)/C(=C(/O)c2ccc3c(c2)CC(C)O3)C1c1cccnc1 (configuration not stated)	> 40.3 µM	> 66.7 µM (inactive)
O=C(C1=C(O)C(=O)N(Cc2ccco2)C1c1ccccc1)c1cccs1 (configuration not stated)	> 40.3 µM	> 66.7 µM (inactive)
CCCNC(=O)CS(=O)(=O)Cc1nc(-c2cccc(OC)c2)oc1C	> 40.3 µM	–
COC(=O)c1[nH]c(C)c(/C(O)=C2\C(=O)C(=O)N(CCN3CCOCC3)C2c2cccnc2)c1C (configuration not stated)	> 40.3 µM	> 66.7 µM (inactive)
CCC(NC(=O)Nc1cc(OC)c(OC)c(OC)c1)(C(F)(F)F)C(F)(F)F	> 40.3 µM	–
COc1cc(C2C(C(=O)c3ccco3)=C(O)C(=O)N2CCc2ccccc2)ccc1O (configuration not stated)	> 40.3 µM	> 66.7 µM (inactive)
CC1(C)S[C@@H]2[C@H](NC(=O)C(C(=O)O)c3ccccc3)C(=O)N2[C@H]1C(=O)O (some centres not stated)	> 40.3 µM	–
Cc1[nH]n2c(=O)c3c(nc2c1-c1ccc(Cl)cc1)CCC3	> 40.3 µM	–

SMILES	Ki	IC50
CCOC(=O)Cc1cc(=O)n2[nH]c(C)c(-c3ccc(OC)cc3)c2n1	> 40.3 µM	–
CN(C)c1nc(N(C)C)nc(N(C)C)n1	> 40.3 µM	–
COc1cc(C2C(C(=O)c3ccc(C)o3)=C(O)C(=O)N2Cc2cccnc2)ccc1O (configuration not stated)	> 40.3 µM	> 66.7 µM (inactive)
COCCCN1C(=O)C(O)=C(C(=O)c2ccco2)C1c1ccccc1 (configuration not stated)	> 40.3 µM	> 66.7 µM (inactive)
CCCS(=O)(=O)N1CCCC(C(=O)N2CCC(Cc3ccccc3)CC2)C1 (configuration not stated)	> 40.3 µM	–
Cc1cc(N2C(=O)C(=O)/C(=C(/O)c3ccc(F)cc3)C2c2cccc(Br)c2)no1 (configuration not stated)	> 40.3 µM	> 66.7 µM (inactive)
O=C(Cn1cnc2c(cnn2-c2ccc(F)cc2)c1=O)OCc1ccccc1	> 40.3 µM	–
O=c1c2c(nc3c(-c4ccc(Cl)cc4)c[nH]n13)CCCC2	> 40.3 µM	–
O=C(C1=C(O)C(=O)N(c2ncccn2)C1c1ccc(Cl)cc1)c1ccco1 (configuration not stated)	> 40.3 µM	> 66.7 µM (inactive)
COc1ccc(-c2c(C)oc3c(CN4CCN(CCO)CC4)c(O)ccc3c2=O)cc1OC	> 40.3 µM	–
CCOc1cccc(/C(O)=C2/C(=O)C(=O)N(Cc3cccnc3)C2c2ccco2)c1 (configuration not stated)	> 40.3 µM	> 66.7 µM (inactive)
COc1ccc(-n2c(Cc3cccn3C)nnc2SCC(=O)Nc2ccc(Cl)cc2)cc1	> 40.3 µM	–
O=c1cc(N2CCc3ccccc32)[nH]c(=O)n1Cc1ccc(F)cc1	> 40.3 µM	–
COc1ccc2c(=O)c(-c3cnn(-c4ccccc4)c3)c(C)oc2c1	> 40.3 µM	–
COc1ccc(NC(=O)C2C(=O)NC3(C)CC2c2ccccc2O3)cc1 (configuration not stated)	> 40.3 µM	–
Cc1ccc(C2C(C(=O)c3sc(C)nc3C)=C(O)C(=O)N2CCN2CCOCC2)o1 (configuration not stated)	> 40.3 µM	> 66.7 µM (inactive)
COc1cc(C2C(C(=O)c3ccc(C)o3)=C(O)C(=O)N2CCc2ccccc2)ccc1O (configuration not stated)	> 40.3 µM	> 66.7 µM (inactive)
COc1ccccc1Oc1c(C)oc2c(CN(C)C)c(O)ccc2c1=O	> 40.3 µM	–
CCN1C(=O)/C(=C2\SC(=S)N(CCCOC)C2=O)c2ccccc21	> 40.3 µM	–
CCOC(=O)c1oc2cc(O)ccc2c(=O)c1-c1ccccc1OC	> 40.3 µM	–
CCN(C(=O)Cc1c(C(=O)O)[nH]c2ccccc12)c1cc(OC)ccc1OC	> 40.3 µM	–
C=CCOc1cccc(C2C(C(=O)c3ccco3)=C(O)C(=O)N2CCN2CCOCC2)c1 (configuration not stated)	> 40.3 µM	> 66.7 µM (inactive)
Cc1ccc(/C(O)=C2\C(=O)C(=O)N(c3cc(C)on3)C2c2cccc(Br)c2)cc1 (configuration not stated)	> 40.3 µM	> 66.7 µM (inactive)
COc1ccccc1C1/C(=C(/O)c2ccccc2)C(=O)C(=O)N1CCO (configuration not stated)	> 40.3 µM	> 66.7 µM (inactive)

SMILES	Ki	IC50
O=C(C1=C(O)C(=O)N(Cc2ccccc2)C1c1ccco1)c1ccco1 (configuration not stated)	> 40.3 µM	> 66.7 µM (inactive)
C=CCOc1ccc(C2C(C(=O)c3ccco3)=C(O)C(=O)N2Cc2cccnc2)cc1 (configuration not stated)	> 40.3 µM	> 66.7 µM (inactive)
O=C(C1=C(O)C(=O)N(CCCN2CCOCC2)C1c1ccccn1)c1cc2ccccc2o1 (configuration not stated)	> 40.3 µM	> 66.7 µM (inactive)
COc1ccc(S(=O)(=O)NC(C)C(=O)Nc2cccc(C(C)=O)c2)cc1 (configuration not stated)	> 40.3 µM	–
C=CCN1C(=O)C2(/C(=C(\O)c3ccc4c(c3)OCCO4)C(=O)C(=O)N2CCCOC)c2ccccc21 (configuration not stated)	> 40.3 µM	> 66.7 µM (inactive)
CCOc1ccc(/C(O)=C2/C(=O)C(=O)N(CC3CCCO3)C2c2ccc(C)o2)cc1 (configuration not stated)	> 40.3 µM	> 66.7 µM (inactive)
COc1ccc(/C(O)=C2/C(=O)C(=O)N(CCN3CCOCC3)C2c2ccc(C)cc2)cc1 (configuration not stated)	> 40.3 µM	> 66.7 µM (inactive)
CCCCn1c(NC(C)=O)c(C#N)c2nc3ccccc3nc21	> 40.3 µM	–
COc1ccc(-c2cn3cccnc3n2)cc1NC(=O)CC(C)C	27.2 µM	–
COc1cc2c3c(c1)/C(=C1/SC(NC(C)=O)=NC1=O)C(=O)N3C(C)(C)C=C2C	> 40.3 µM	–
Cc1ccc(NC(=O)C2CCCN2S(=O)(=O)c2cccc3cccnc23)cc1F (configuration not stated)	> 40.3 µM	–
N[C@@H](Cc1ccc(O)c(I)c1)C(=O)O	> 40.3 µM	–
COCCCN1C(=O)C(O)=C(C(=O)c2ccco2)C1c1cccc(Br)c1 (configuration not stated)	> 40.3 µM	> 66.7 µM (inactive)
Cc1nc(C)c(C(=O)C2=C(O)C(=O)N(CCCn3ccnc3)C2c2ccc(Cl)cc2)s1 (configuration not stated)	> 40.3 µM	> 66.7 µM (inactive)
Cc1cc2oc(C(=O)NC3CCS(=O)(=O)C3)c(C)c2cc1C (configuration not stated)	> 40.3 µM	–
CCOC(=O)c1ccc(NC(=O)Nc2ccc3c4c(cccc24)C(=O)N3CC)cc1	> 40.3 µM	–
CCOC(=O)c1c(NC(=O)c2cc(C3CC3)on2)sc2c1CCCC2	> 40.3 µM	–
CC(=O)SCC(=O)N=c1sc2cc(F)ccc2n1C	> 40.3 µM	–
CC(C)(C)CC(=O)Nc1ccc(Nc2ccccc2)cc1	> 40.3 µM	–
OCc1nc2ccccc2n1CC(O)Cn1ccc2ccccc21 (configuration not stated)	> 40.3 µM	–
COc1ccc(-c2nc(-c3ccc(Br)o3)no2)cc1OC	> 40.3 µM	–
CC(C)OC(=O)c1nnn(-c2nonc2N)c1CN1CCc2ccccc2C1	> 40.3 µM	–
COc1ccc(-c2cc(C(F)(F)F)nc(N3CCCCC3)n2)cc1OC	> 40.3 µM	–
COc1ccc2cnn(-c3ccccc3)c(=O)c2c1OC	> 40.3 µM	–

Reference: PubChem BioAssay AID520 (NMMLSC, 2006)
